From ChEMBL document CHEMBL1201862, “PubChem BioAssay data set” (2004) come the findings set out here.

Molecules are shown by their SMILES. The source made the active and inactive calls. Bounds are passed on as bounds.

What all share (assay type): functional
Experiment [1] addresses Tyrosine-protein kinase Fyn (Homo sapiens, UniProt P06241).
Experiment [2] concerns the target Macrophage colony-stimulating factor 1 receptor (Homo sapiens, UniProt P07333).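 Also: value comes from the Navigating the Kinome screening panel, CSF1R member.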
Experiment [3] concerns the target Serine/threonine-protein kinase PAK 4 (Homo sapiens, UniProt O96013).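 Also: value obtained within a kinome profiling panel in which PAK4 was one of the panel members.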
The target in experiment [4] is Protein kinase C delta type (Homo sapiens, UniProt Q05655).
Chain of Protein kinase C delta type (Q05655 whole entry, canonical isoform): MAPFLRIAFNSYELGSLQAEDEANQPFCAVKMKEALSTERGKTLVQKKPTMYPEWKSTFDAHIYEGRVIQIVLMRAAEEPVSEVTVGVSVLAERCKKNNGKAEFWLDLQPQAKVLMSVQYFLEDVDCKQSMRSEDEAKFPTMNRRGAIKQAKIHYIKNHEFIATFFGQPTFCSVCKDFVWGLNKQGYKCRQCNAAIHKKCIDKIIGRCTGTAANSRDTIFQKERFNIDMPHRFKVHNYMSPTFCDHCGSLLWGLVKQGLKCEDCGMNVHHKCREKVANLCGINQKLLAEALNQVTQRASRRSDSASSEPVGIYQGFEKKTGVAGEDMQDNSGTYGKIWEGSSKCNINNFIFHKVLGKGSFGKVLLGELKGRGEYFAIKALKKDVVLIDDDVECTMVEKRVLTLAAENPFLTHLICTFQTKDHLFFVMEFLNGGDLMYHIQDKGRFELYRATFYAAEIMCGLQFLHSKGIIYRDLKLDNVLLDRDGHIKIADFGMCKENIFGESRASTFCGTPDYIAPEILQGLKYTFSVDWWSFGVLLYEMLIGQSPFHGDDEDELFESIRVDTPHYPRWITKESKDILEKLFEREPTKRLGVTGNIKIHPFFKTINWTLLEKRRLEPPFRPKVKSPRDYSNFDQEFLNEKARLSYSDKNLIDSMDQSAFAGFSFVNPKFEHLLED
Experiment [5] deals with Casein kinase I isoform alpha (Homo sapiens, UniProt P48729).
Chain of Casein kinase I isoform alpha (P48729 whole entry, canonical isoform): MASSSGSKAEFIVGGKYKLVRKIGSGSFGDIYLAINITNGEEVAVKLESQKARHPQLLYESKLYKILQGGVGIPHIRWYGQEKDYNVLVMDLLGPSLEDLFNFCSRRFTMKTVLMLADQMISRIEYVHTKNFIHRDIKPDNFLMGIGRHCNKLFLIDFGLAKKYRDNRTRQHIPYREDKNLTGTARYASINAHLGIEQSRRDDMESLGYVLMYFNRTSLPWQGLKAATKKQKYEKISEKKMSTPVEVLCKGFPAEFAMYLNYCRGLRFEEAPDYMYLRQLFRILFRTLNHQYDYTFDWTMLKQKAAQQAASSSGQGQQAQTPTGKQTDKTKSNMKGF
Experiment [6] has as its target Vascular endothelial growth factor receptor 1 (Homo sapiens, UniProt P17948).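 Also: measured within a kinome-wide profiling panel, FLT1 as the panel member.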
Experiment [7] addresses Serine/threonine-protein kinase Nek4 (Homo sapiens, UniProt P51957).
Experiment [8] has as its target Casein kinase II subunit alpha (Homo sapiens, UniProt P68400).
Experiment [9] has as its target Mitogen-activated protein kinase 9 (Homo sapiens, UniProt P45984).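 Also: value from a kinome panel profiling assay, MAPK9 panel entry.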
For experiment [10], the target named is Dual specificity mitogen-activated protein kinase kinase 2 (Homo sapiens, UniProt P36507). Nature of the experiment: Navigating the Kinome. Panel member name: MAP2K2.
Experiment [11] has as its target Maternal embryonic leucine zipper kinase (Homo sapiens, UniProt Q14680).
Experiment [12] deals with Interleukin-1 receptor-associated kinase 1 (Homo sapiens, UniProt P51617).
Chain of Interleukin-1 receptor-associated kinase 1 (P51617 whole entry): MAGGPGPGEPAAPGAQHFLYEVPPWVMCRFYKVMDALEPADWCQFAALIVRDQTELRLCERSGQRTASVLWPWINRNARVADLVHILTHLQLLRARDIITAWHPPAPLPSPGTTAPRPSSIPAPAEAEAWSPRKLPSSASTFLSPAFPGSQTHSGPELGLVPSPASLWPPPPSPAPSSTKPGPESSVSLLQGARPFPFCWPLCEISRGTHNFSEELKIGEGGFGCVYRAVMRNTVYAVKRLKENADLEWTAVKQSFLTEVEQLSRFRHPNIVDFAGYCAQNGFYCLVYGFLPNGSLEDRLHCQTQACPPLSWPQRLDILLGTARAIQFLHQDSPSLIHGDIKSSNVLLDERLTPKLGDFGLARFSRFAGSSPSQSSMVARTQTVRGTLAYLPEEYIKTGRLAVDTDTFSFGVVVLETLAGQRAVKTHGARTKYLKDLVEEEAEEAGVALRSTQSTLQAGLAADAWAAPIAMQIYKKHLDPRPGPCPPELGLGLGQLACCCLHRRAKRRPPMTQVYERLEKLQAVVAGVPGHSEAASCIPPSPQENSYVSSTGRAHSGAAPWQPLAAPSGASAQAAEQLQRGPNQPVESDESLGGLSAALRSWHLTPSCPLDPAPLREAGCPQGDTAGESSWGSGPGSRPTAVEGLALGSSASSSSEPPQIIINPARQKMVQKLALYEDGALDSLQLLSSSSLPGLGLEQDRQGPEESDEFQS
In experiment [13] the target is T1, Serine/threonine-protein kinase 17A (Homo sapiens, UniProt Q9UEE5).
T1 sequence (Q9UEE5 whole entry): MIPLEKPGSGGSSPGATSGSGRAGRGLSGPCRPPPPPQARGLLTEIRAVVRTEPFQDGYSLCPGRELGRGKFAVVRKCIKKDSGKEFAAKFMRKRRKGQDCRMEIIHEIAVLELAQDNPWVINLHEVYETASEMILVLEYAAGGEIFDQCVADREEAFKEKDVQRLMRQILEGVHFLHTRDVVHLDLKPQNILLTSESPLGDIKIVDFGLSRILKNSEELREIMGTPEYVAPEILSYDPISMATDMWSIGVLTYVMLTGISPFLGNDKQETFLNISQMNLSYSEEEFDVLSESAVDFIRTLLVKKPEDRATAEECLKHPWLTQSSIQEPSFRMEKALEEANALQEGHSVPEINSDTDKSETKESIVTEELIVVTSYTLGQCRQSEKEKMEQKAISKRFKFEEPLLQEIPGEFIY

Experiment [14] addresses Dual specificity mitogen-activated protein kinase kinase 1 (Homo sapiens, UniProt Q02750). Nature of the experiment: Navigating the Kinome. Panel member name: MAP2K1.
Experiment [15] deals with T2, Homeodomain-interacting protein kinase 4 (Homo sapiens, UniProt Q8NE63).
T2 sequence (Q8NE63 whole entry): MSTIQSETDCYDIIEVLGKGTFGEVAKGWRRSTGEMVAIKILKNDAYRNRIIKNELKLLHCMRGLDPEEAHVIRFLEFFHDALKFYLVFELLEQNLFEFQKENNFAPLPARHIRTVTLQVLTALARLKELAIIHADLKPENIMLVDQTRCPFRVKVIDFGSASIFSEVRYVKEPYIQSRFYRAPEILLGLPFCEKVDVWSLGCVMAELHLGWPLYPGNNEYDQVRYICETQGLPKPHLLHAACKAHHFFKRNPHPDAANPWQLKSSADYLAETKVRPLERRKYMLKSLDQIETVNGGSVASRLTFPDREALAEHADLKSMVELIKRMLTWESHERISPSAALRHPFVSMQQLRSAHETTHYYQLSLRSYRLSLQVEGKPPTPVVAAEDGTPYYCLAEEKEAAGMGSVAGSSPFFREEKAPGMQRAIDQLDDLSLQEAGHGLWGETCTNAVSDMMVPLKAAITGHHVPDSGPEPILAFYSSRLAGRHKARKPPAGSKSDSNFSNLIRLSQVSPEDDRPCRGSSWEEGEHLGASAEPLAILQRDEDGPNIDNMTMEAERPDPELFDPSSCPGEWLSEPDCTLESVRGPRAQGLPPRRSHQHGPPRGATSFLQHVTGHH

Experiment [16] deals with Testis-specific serine/threonine-protein kinase 1 (Homo sapiens, UniProt Q9BXA7).
For experiment [17], the target named is T3, Mitogen-activated protein kinase 12 (Homo sapiens, UniProt P53778).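 Also: measured as one member of a kinome-wide kinase profiling panel.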
T3 sequence (P53778 whole entry): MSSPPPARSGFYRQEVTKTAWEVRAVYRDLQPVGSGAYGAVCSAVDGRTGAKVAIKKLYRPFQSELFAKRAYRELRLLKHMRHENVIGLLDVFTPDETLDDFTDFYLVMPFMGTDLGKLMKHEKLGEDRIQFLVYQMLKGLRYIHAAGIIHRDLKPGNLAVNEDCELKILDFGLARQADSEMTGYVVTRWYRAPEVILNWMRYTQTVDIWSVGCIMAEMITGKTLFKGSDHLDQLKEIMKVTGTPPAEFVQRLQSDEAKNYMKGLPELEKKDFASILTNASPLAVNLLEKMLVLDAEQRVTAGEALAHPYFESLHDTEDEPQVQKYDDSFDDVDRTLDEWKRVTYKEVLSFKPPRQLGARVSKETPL

Experiment [18] has as its target Serine/threonine-protein kinase Chk1 (Homo sapiens, UniProt O14757).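 Also: measured as one member of a kinome-wide kinase profiling panel.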
In experiment [19] the target is Homeodomain-interacting protein kinase 2 (Homo sapiens, UniProt Q9H2X6).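 Also: measured within a kinome-wide kinase profiling panel, HIPK2 being one panel member.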
Chain of Homeodomain-interacting protein kinase 2 (Q9H2X6 whole entry): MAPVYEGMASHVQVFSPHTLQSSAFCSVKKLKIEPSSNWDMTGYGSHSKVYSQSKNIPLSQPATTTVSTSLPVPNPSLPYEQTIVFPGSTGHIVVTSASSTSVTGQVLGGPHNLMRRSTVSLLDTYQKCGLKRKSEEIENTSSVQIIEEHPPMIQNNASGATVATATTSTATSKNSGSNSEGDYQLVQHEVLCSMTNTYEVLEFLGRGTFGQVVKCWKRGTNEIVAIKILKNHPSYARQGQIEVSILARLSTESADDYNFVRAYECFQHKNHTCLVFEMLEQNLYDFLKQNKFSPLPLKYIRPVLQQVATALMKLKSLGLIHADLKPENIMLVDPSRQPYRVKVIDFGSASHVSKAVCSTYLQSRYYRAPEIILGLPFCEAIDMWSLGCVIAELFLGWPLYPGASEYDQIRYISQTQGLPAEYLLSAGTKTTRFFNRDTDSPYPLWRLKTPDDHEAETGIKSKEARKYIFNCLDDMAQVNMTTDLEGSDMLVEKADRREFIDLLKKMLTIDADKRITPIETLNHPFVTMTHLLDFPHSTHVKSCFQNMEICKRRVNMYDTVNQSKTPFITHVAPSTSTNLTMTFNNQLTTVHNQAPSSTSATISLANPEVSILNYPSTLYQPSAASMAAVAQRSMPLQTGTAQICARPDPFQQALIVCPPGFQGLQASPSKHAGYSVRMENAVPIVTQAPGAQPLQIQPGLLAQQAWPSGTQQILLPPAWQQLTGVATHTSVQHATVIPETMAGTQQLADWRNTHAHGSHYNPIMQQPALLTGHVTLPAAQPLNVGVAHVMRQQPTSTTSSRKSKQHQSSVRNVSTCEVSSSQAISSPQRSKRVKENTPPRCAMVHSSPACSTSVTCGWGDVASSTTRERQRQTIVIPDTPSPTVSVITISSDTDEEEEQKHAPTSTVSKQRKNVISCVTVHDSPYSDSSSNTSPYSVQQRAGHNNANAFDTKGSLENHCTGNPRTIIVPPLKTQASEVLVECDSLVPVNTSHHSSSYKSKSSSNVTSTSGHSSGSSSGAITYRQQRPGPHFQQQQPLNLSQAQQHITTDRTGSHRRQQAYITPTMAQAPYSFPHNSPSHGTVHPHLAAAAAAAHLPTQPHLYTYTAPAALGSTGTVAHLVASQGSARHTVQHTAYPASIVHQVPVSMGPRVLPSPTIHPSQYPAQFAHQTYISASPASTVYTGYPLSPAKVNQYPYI
Experiment [20] concerns the target Cell division cycle 7-related protein kinase (Homo sapiens, UniProt O00311).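 Also: value obtained from a kinome-wide kinase panel.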
In experiment [21] the target is Calcium/calmodulin-dependent protein kinase type II subunit gamma (Homo sapiens, UniProt Q13555).
Chain of Calcium/calmodulin-dependent protein kinase type II subunit gamma (Q13555 whole entry): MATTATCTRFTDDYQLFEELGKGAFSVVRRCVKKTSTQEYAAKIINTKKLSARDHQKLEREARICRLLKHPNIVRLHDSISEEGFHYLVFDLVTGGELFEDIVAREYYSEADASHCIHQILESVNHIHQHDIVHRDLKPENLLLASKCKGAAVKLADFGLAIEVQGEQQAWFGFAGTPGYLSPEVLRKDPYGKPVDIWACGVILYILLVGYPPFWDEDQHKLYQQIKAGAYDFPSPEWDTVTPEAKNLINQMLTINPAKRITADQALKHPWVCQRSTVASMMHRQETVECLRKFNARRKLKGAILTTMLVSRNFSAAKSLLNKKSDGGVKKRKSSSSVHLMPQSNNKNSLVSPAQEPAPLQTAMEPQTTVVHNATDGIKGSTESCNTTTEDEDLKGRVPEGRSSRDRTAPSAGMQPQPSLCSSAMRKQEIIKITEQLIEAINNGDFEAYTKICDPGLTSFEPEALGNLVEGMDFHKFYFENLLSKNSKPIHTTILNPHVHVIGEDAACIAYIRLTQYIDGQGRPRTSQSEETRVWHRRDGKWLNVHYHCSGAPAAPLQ

Chain of Mitogen-activated protein kinase 9 (P45984 whole entry): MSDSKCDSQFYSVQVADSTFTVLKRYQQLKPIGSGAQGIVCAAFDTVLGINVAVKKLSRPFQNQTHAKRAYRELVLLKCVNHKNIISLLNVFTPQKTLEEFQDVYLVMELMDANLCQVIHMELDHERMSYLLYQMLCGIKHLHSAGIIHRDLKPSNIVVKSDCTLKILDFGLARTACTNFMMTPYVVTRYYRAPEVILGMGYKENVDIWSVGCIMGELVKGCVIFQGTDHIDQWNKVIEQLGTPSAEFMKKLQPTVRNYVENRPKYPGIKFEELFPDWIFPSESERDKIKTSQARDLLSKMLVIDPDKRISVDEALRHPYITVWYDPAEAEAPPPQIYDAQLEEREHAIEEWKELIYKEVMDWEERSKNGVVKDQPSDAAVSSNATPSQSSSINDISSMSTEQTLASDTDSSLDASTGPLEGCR
Chain of Cell division cycle 7-related protein kinase (O00311 whole entry): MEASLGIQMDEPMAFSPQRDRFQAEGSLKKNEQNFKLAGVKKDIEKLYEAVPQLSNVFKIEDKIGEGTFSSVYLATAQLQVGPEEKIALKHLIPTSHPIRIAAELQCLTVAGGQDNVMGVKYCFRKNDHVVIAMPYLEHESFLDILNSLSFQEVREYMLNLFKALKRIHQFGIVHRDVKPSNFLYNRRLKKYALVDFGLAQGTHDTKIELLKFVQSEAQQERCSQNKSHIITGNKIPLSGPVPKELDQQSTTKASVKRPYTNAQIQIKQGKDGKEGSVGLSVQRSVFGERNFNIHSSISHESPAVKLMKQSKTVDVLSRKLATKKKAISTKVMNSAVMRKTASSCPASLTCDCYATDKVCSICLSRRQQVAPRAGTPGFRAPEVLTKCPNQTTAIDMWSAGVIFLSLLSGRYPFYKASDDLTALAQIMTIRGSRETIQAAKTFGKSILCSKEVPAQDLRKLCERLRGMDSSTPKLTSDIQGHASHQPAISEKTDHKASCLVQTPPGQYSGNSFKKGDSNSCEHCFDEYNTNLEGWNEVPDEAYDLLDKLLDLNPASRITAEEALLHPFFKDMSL
Chain of Dual specificity mitogen-activated protein kinase kinase 1 (Q02750 whole entry): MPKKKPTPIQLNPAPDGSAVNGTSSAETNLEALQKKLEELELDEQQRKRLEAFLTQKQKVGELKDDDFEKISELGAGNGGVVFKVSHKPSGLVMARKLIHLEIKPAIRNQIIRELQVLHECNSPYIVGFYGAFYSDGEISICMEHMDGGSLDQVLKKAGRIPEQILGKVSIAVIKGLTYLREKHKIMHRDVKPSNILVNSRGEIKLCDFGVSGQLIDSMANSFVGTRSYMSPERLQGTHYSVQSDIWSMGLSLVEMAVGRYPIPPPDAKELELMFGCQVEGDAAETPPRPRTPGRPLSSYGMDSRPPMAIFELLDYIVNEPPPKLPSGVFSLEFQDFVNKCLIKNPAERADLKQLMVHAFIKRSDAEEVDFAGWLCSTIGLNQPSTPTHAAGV

A word on the Ki: it is the equilibrium dissociation constant of an inhibitor or competing ligand from its target. Broadly, the pKi is the negative decadic logarithm of the Ki, by convention in mol/L. As to `NC(=O)c1cc(-c2ccnc(N)n2)[nH]c1-c1ccc(Cl)cc1Cl`, the Ki in experiment [1] is > 794 nM (inactive); in [2], > 2510 nM (inactive); in experiment [3], > 5010 nM (inactive); in experiment [4] it was 158 nM (active); in experiment [5], 7.94 nM (active); in [6], > 398 nM (inactive). In addition, the Ki was 50.1 nM (active) in experiment [7]; 200 nM (active) in experiment [8]; 501 nM (active) in experiment [9]; > 3980 nM (inactive) in [10]; > 1580 nM (inactive) in experiment [11]; 100 nM (active) in experiment [12]. The inhibitory constant (Ki) was 25.1 nM (active) in experiment [13]; 2000 nM (active) in [14]; 398 nM (active) in experiment [15]; > 1580 nM (inactive) in experiment [16]; 79.4 nM (active) in experiment [17]; > 7940 nM (inactive) in experiment [18]. Besides, the Ki in [19] was 25.1 nM (active); in experiment [20], 0.2 nM (active); in experiment [21], 6310 nM (active). In addition, the negative logarithm of the Ki (pKi) turned out to be 6.8 in experiment [4]; 8.1 in [5]; 7.3 in [7]; 6.7 in [8]; 6.3 in experiment [9]; 7 in [12]. The pKi in [13] is reported as 7.6; in experiment [14] it was 5.7; in experiment [15] it was 6.4; in [17], 7.1; in [19], 7.6; in [20], 9.7. The pKi in experiment [21] worked out at 5.2.
In the case of `NC(COc1cncc(-c2ccc3c(c2)C(=Cc2ccco2)C(=O)N3)c1)Cc1c[nH]c2ccccc12` (stereo not given), the inhibition constant (Ki) in experiment [1] was 398 nM (active); in experiment [2], > 2510 nM (inactive); in experiment [3] it was 1260 nM (active); in [4] it was 20 nM (active); in experiment [5], 501 nM (active); in [6] it was > 398 nM (inactive). Further, the Ki in [7] was 1580 nM (active); in [8], > 6310 nM (inactive); in experiment [9], 398 nM (active); in experiment [11], 5.01 nM (active); in experiment [12] it was 501 nM (active); in experiment [13], 15.8 nM (active). In addition, the Ki in [15] is 63.1 nM (active); in experiment [16] it was 6.31 nM (active); in experiment [17], 2510 nM (active); in [18], 398 nM (active); in experiment [19], 39.8 nM (active); in [20], 251 nM (active). Further, the Ki in [21] is 25.1 nM (active).
For `Cc1ccc(-n2nc(C(C)(C)C)cc2NC(=O)Nc2ccc(OCCN3CCOCC3)c3ccccc23)cc1` [DORAMAPIMOD], the Ki is > 3980 nM (inactive) in experiment [10] and > 3160 nM (inactive) in experiment [14].
